Where a name gives a salt, the structure may show the parent alone. One block for each molecule: values may come before it.
Columns and labels:
Type in all cases: physicochemical
[1] = Release rate by dialysis in a diffusion chamber model; conditions: against 20% glycerol, 3% Poloxamer 407, pH 7.4, 37° C.
Procedure: Amiodarone HCl and a tocol emulsion containing amiodarone and tocopherol phosphate as a tocol-soluble binary ion pair, prepared as mentioned above, were dialyzed against 20% glycerol, 3% Poloxamer 407 at pH 7.4 and 37° C.
The rate of free or complexed drug exiting the dialysis chamber provides an indirect estimate of the “sustained release” properties of the emulsion and the strength of the ion pair species.

[2] = Solubility of clarithromycin in tocopherol oil phase (crystals on cooling)
Procedure: Clarithromycin was obtained as the free base from Wockhardt (Delhi, India). Vitamin E Succinate (VESA) was obtained from Eastman (Freeport Tenn.). Capmul® MCM was obtained from Abitec (Janesville Wis.); Poloxamer® 407 (Pluronic® F-127) from BASF (Parsippany N.J.); PEG-400 from Spectrum Chemicals (Gardenia Calif.), and d-δ-tocopherol from Sigma Chemicals (St Louis MO). An oil phase consisting of d-δ-tocopherol and Capmul MCM was prepared using 2 parts of δ-tocopherol. Dry ethanol was used to dissolve the components at 70° C. and the ethanol was then removed under vacuum. […] A tocol-soluble ion pair of this compound was then produced by addition of a stoichiometric equivalent of Vitamin E succinate (VESA) as the free acid. […] The clarithromycin was now sufficiently soluble in the tocopherol oil to allow subsequent preparation of the emulsion. The oil was then re-heated to 45° C. and degassed immediately prior to emulsification as described below.

[3] = Erythromycin solubility in oils
[4] = Doxorubicin ion pair solubility in vitamin E and emulsification; conditions: ion pair with vitamin E phosphate free acid at 2:1 molar ratio
Description: A fine emulsion can be prepared using high pressure homogenization to reduce particle size.

Rate of dialysis / diffusion out of the dialysis chamber [1]: linear with concentration
Structure (SMILES): CCCCc1oc2ccccc2c1C(=O)c1cc(I)c(OCCN(CC)CC)c(I)c1 [Amiodarone HCl]

Crystallization upon cooling of the oil ([2]; after addition of a stoichiometric equivalent of Vitamin E succinate (free acid), re-dissolution in ethanol and cooling): no crystals formed
Crystallization upon cooling of the oil ([2]; d-δ-tocopherol/Capmul MCM oil phase with surfactant, ethanol removed, without Vitamin E succinate): crystals of clarithromycin were observed
Structure (SMILES): CC[C@H]1OC(=O)[C@H](C)[C@@H](O[C@H]2C[C@@](C)(OC)[C@@H](O)[C@H](C)O2)[C@H](C)[C@@H](O[C@@H]2O[C@H](C)C[C@H](N(C)C)[C@H]2O)[C@](C)(OC)C[C@@H](C)C(=O)[C@H](C)[C@@H](O)[C@]1(C)O [Clarithromycin]

solubility in medium-chain triglycerides (MCT) ([3]; MCT): ~4 % w/w
solubility in α-tocopherol ([3]; α-tocopherol): approximately 10 % w/w
Structure (SMILES): CC[C@H]1OC(=O)[C@H](C)[C@@H](O[C@H]2C[C@@](C)(OC)[C@@H](O)[C@H](C)O2)[C@H](C)[C@@H](O[C@@H]2O[C@H](C)C[C@H](N(C)C)[C@H]2O)[C@](C)(O)C[C@@H](C)C(=O)[C@H](C)[C@@H](O)[C@]1(C)O [Erythromycin]

Solubility of ion pair in vitamin E [4]: soluble in vitamin E
Structure (SMILES): COc1cccc2c1C(=O)c1c(O)c3c(c(O)c1C2=O)C[C@@](O)(C(=O)CO)C[C@@H]3O[C@H]1C[C@H](N)[C@H](O)[C@H](C)O1 [doxorubicin free base, Doxorubicin]

Source: patent publication US6479540B1, “Compositions of tocol-soluble therapeutics” (Sonus Pharmaceuticals, Inc., priority 1999, dated 2002)
